Patent US20040024293A1, “Methods and systems for analyzing complex biological systems” (priority 2001, published 2004)

What was measured:
[1] = system: Arabidopsis thaliana; test: Phenotypic profiling of Arabidopsis sprayed with unknown and commercial herbicides (MOA1); assay type: in vivo
[2] = system: Saccharomyces cerevisiae wild type strain BY4743; test: Gene expression analysis of yeast cells treated with antifungal drugs (AF1); assay type: cell-based; conditions: p < 0.05; KEGG pathway mapping of gene expression data
Experimental: Saccharomyces cerevisiae wild type strain BY4743 was purchased from American Type Culture Center (ATCC, Manassas, Va.). The yeast strain was grown in YPD or SD media. […] The cultures started from fresh single colonies were grown in 1.0 ml YPD overnight at 30° C. […] The OD600 was adjusted to 1.0 with YPD media, then 2.0 ml of each was inoculated into three 250 ml flasks, each containing 50 ml of SD media. […] The cells were kept growing for another two hours, then collected by centrifugation at 4000 rpm for 5 minutes at 4° C. Pellets were washed once with ice-cold water, then were lyophilized overnight at 4° C. […] RNA quality was determined using the Bioanalyzer 2100 and the RNA 6000 assay (Agilent Technologies, Palo Alto, Calif.) according to manufacturer's instructions. RNA concentrations were determined spectrophotometrically by measuring the absorption at 260 nm in an Ultrospec 2000 (Pharmacia Biotech, Piscataway, N.J.). […] Labeled cRNAs were evaluated using the RNA 6000 assay on the Agilent Bioanalyzer 2100. Labeled cRNA concentrations were determined spectrophotometrically by measuring the absorption at 260 nm in an Ultrospec 2000 (Pharmacia Biotech, Piscataway, N.J.). […] Each feature was determined from an array's associated pattern file and a detection algorithm. […] Data was evaluated after combining results from fluor reversal replicate hybridizations. […]

[3] = system: Saccharomyces cerevisiae wild type strain BY4743; test: Combined gene expression and metabolite data mapped to KEGG reactions and pathways (AF1); assay type: cell-based; conditions: yeast
Source text: In AF1, two different technologies were utilized: gene expression analysis (for examination of mRNA expression) and metabolite analysis. […] As noted previously, existing metabolic databases may be helpful in practicing the methods and systems of the present invention, but many databases include limitations that make their use in data analysis and pathway mapping less than straightforward. […] This caveat to KEGG makes it difficult to pinpoint the correct pathway when attempting to link a gene to a specific pathway. […] The pathway score indicates how meaningful the mapping is, or how likely it is to be correctly indicative of the pathway involved in the perturbation under examination. The method provides a pathway score based on perturbation levels of genes. and/or compounds and the information content of each gene and/or compound in the pathway, i.e., a pathway score indicates the extent to which other pathways are mapped to a gene/compound. For example, imagine that two genes are perturbed in a particular experiment. One gene maps to only one pathway, giving a high degree of probability that the perturbed pathway is the one identified in the mapping. The second gene maps to three pathways. In the later example, there is only one-third the probability that the pathway identified in the mapping is the one perturbed. The present invention provides a method for calculating the pathway scores, so that more weight is given to a score of a gene or compound that maps to only one pathway than to a score of a gene or compound that maps to multiple pathways. […] Where n=the total number of genes in the pathway; ipath—count=the number of pathways containing a gene; and j=the number of genes in the pathway that are perturbed. Another factor to be considered when weighting a pathway score is the degree of perturbation. Degree of perturbation can be calculated, for example, based on a number of standard deviations from a norm, and included in an equation such as the one shown above, so that not only the number of pathways is taken into account, but also accounts for the amount of gene transcript or compound present as compared to a control. Compounds were also linked to pathways using the KEGG database. KEGG links 676 compounds measured in AF1 to a total of 92 pathways. Of the 676 compounds under consideration, 77 were detected in the AF1 samples. […] The multiple mapping feature of KEGG makes it difficult to pinpoint the correct pathway when trying to link a compound to a specific pathway. […] A pathway score calculation is applied to the compounds to account for both information content (number of pathways a compound maps to) and perturbation level. […]

[4] = system: Saccharomyces cerevisiae wild type strain BY4743; test: Metabolite analysis (GC-MS, LC-MS) of yeast cells treated with antifungal drugs (AF1); assay type: cell-based; conditions: for Fold Change of NacetylDglucosamine: metabolite NacetylDglucosamine; for Fold Change of phosphoenolpyruvate: metabolite phosphoenolpyruvate; for Fold Change of thymine: metabolite thymine; for Fold Change of urocanic acid: metabolite urocanic acid; for Fold Change of zeatin: metabolite zeatin

Nc1nc[nH]n1 [Amitrole]
herbicidal phenotype in words [1]: chlorosis and not true bleaching

C[C@@H]1[C@H](O)[C@@H](C)/C=C/C=C/C=C/C=C/C=C/C=C/C=C/[C@H](O[C@@H]2O[C@H](C)[C@@H](O)[C@H](N)[C@@H]2O)C[C@@H]2O[C@](O)(C[C@@H](O)C[C@@H](O)[C@H](O)CC[C@@H](O)C[C@@H](O)CC(=O)O[C@H]1C)C[C@H](O)[C@H]2C(=O)O [Amphoteracin B]
# Pathways affected by at least one gene [2]: 97
# Reactions (Number Of Pathways Having at Least One Enzyme and One Compound Perturbed) [3]: 37

CCSC(=O)N(CC(C)C)CC(C)C [Butylate]
herbicidal phenotype in words [1]: neither showed a strong herbicidal phenotype

CC(C)OC(=O)Nc1cccc(Cl)c1 [Chloropropham]
herbicidal phenotype in words [1]: neither showed a strong herbicidal phenotype

CC[C@@H]([C@H](C)O)n1ncn(-c2ccc(N3CCN(c4ccc(OC[C@@H]5CO[C@@](Cn6cncn6)(c6ccc(F)cc6F)C5)cc4)CC3)cc2)c1=O [Posaconazole]
Fold Change: aspartic acid ([4]; GC): −0.071
Fold Change: campesterol ([4]; GC): 0
Fold Change: desmosterol ([4]; GC): 0
Fold Change: iso citric acid ([4]; GC): 0.4
Fold Change of NacetylDglucosamine ([4]; platform nLC, p-Value 1): 0
Fold Change of NacetylDglucosamine ([4]; platform pLC, p-Value 1): 0
Fold Change of NacetylLglutamate ([4]; metabolite NacetylLglutamate, platform pLC, p-Value 1): 0
Fold Change of NacetylLornithine ([4]; metabolite NacetylLornithine, platform nLC, p-Value 1): 0
Fold Change of niacinamide ([4]; metabolite niacinamide, platform pLC, p-Value 1): 0
Fold Change of nopaline ([4]; metabolite nopaline, platform pLC, p-Value 1): 0
Fold Change of ornithine3 ([4]; metabolite ornithine3, platform GC, p-Value 0.965157424): 0.041
Fold Change of orotic acid ([4]; metabolite orotic acid, platform nLC, p-Value 1): 0
Fold Change of phenylpyruvic acid ([4]; metabolite phenylpyruvic acid, platform nLC, p-Value 1): 0
Fold Change of phosphoenolpyruvate ([4]; platform nLC, p-Value 1): 0
Fold Change of phosphoenolpyruvate ([4]; platform pLC, p-Value 1): 0
Fold Change of pinitol ([4]; metabolite pinitol, platform nLC, p-Value 1): 0
Fold Change of porphobilinogen ([4]; metabolite porphobilinogen, platform nLC, p-Value 1): 0
Fold Change of progesterone ([4]; metabolite progesterone, platform pLC, p-Value 1): 0
Fold Change of retinoic acid ([4]; metabolite retinoic acid, platform nLC, p-Value 1): 0
Fold Change of riboflavin ([4]; metabolite riboflavin, platform pLC, p-Value 1): 0
Fold Change of salicylic/HObenzoic ([4]; metabolite salicylic/HObenzoic, platform nLC, p-Value 1): 0
Fold Change of shikimic acid ([4]; metabolite shikimic acid, platform nLC, p-Value 1): 0
Fold Change of sinapinic acid ([4]; metabolite sinapinic acid, platform nLC, p-Value 1): 0
Fold Change of sugar-phosphate ([4]; metabolite sugar-phosphate, platform pLC, p-Value 1): 0
Fold Change of thiamine ([4]; metabolite thiamine, platform pLC, p-Value 1): 0
Fold Change of thymine ([4]; platform nLC, p-Value 1): 0
Fold Change of thymine ([4]; platform pLC, p-Value 1): 0
Fold Change of tryptophan ([4]; metabolite tryptophan, platform pLC, p-Value 1): 0
Fold Change of uric acid ([4]; metabolite uric acid, platform pLC, p-Value 1): 0
Fold Change of urocanic acid ([4]; platform nLC, p-Value 1): 0
Fold Change of urocanic acid ([4]; platform pLC, p-Value 1): 0
Fold Change of xanthosine(diH2O) ([4]; metabolite xanthosine(diH2O), platform pLC, p-Value 1): 0
Fold Change of xanthosineDiH2O ([4]; metabolite xanthosineDiH2O, platform nLC, p-Value 1): 0
Fold Change of zeatin ([4]; platform nLC, p-Value 1): 0
Fold Change of zeatin ([4]; platform pLC, p-Value 1): 0
Fold Change: 4-methylcatechol ([4]; nLC): 0
Fold Change: 5hydroxyLtryptophan ([4]; nLC): 0
Fold Change: 6-benzylaminopurine ([4]; nLC): 0
Fold Change: abscisic acid ([4]; nLC): 0
Fold Change: adenine ([4]; nLC): 0
Fold Change: anthranilic acid ([4]; nLC): 0
Fold Change: benzoic acid ([4]; nLC): 0
Fold Change: catechol ([4]; nLC): 0
Fold Change: cinnamic acid ([4]; nLC): 0
Fold Change: citricanoic/itaconi ([4]; nLC): 0
Fold Change: coumaric acid ([4]; nLC): 0
Fold Change: cytosine ([4]; nLC): 0
Fold Change: diaminopimelic acid ([4]; nLC): 0
Fold Change: dihydrofolic acid ([4]; nLC): 0
Fold Change: estrone ([4]; nLC): 0
Fold Change: farnesol ([4]; nLC): 0
Fold Change: folic acid ([4]; nLC): 0
Fold Change: gibberellic ([4]; nLC): 0
Fold Change: guanine ([4]; nLC): 0
Fold Change: histidine ([4]; nLC): 0
Fold Change: homogentisic/uric ([4]; nLC): 0
Fold Change: hydrocortisone ([4]; nLC): 0
Fold Change: indole3pyruvic acid ([4]; nLC): 0
Fold Change: jasmonic acid ([4]; nLC): 0
Fold Change: kinetin ([4]; nLC): 0
Fold Change: luteolin ([4]; nLC): 0
Fold Change: malonic acid ([4]; nLC): 0
Fold Change: methionine ([4]; nLC): 0
Fold Change: 4-aminobenzoic acid ([4]; pLC): 0
Fold Change: 4-methylcatechol ([4]; pLC): 0
Fold Change: 5hydroxyLtryptophan ([4]; pLC): 0
Fold Change: 6benzylaminopurine ([4]; pLC): 0
Fold Change: abscisic acid ([4]; pLC): 0
Fold Change: adenosine ([4]; pLC): 0
Fold Change: allantoic acid ([4]; pLC): 0
Fold Change: anthranilic acid ([4]; pLC): 0
Fold Change: argininosuccinate ([4]; pLC): 0
Fold Change: biotin ([4]; pLC): 0
Fold Change: caffeine ([4]; pLC): 0
Fold Change: citric acid TME ([4]; pLC): 0
Fold Change: cytidine ([4]; pLC): 0
Fold Change: diaminopimelic acid ([4]; pLC): 0
Fold Change: dihydrofolic acid ([4]; pLC): 0
Fold Change: dipicolinic acid ([4]; pLC): 0
Fold Change: folic acid ([4]; pLC): 0
Fold Change: glucosamine ([4]; pLC): 0
Fold Change: glucosamine6PO4 ([4]; pLC): 0
Fold Change: histidine ([4]; pLC): 0
Fold Change: hydrocortisone ([4]; pLC): 0
Fold Change: itaconic acid dimes ([4]; pLC): 0
Fold Change: kinetin ([4]; pLC): 0
Fold Change: luteolin ([4]; pLC): 0
# Reactions (Number Of Pathways Having at Least One Enzyme and One Compound Perturbed) [3]: 3
